From PMC9446078 (Frontiers in Endocrinology, 2022)

Experiment: Toxicokinetics in miniature swine
Assay type: in vivo, Hanford miniature swine
Procedure: A total of 40 Hanford miniature swine (20 male and 20 female) divided into four treatment groups were used for this study. A 12-week topical application of Galnobax 20% was carried out in the miniature swine wound healing model with twice-daily dosing. Six wounds (10 cm^2 each) of partial thickness were created on the dorsal region of all animals. Four wounds of each animal received twice-daily topical doses of either the vehicle or Galnobax gel, and the remaining two sites served as untreated comparative control wounds. Each group has four male and female miniature swine for the assessments and one each for the recovery period as given in Table 1 . Safety parameters in terms of ECG, clinical pathology, wound site evaluation, and toxicokinetics were performed during the study.

[1] = Day 1, Group 2 swine, topical 400 mg Galnobax Gel, mean
[2] = Week 6, Group 2 swine, topical 400 mg Galnobax Gel BID, mean
[3] = Week 12, Group 2 swine, topical 400 mg Galnobax Gel BID, mean

CC(C)NCC(O)COc1ccc(CCC(=O)O)cc1 (centres unmarked) [Esmolol Acid, Esmolol acid]
AUClast [1]: 3780 ng·h/mL
Cmax [1]: 683 ng/mL
Tmax [1]: 2.60 h
t1/2 [1]: 4.18 h
t1/2 (Day 1, Group 2 swine, topical 400 mg Galnobax Gel, mean, listed as Esmolol acid): approximately 4 hr
AUClast [2]: 308 ng·h/mL
Cmax [2]: 52.5 ng/mL
Tmax [2]: 5.33 h
AUC0-8 [3]: 269 ng·h/mL
AUClast [3]: 291 ng·h/mL
Cmax [3]: 59.7 ng/mL
Tmax [3]: 2.09 h
t1/2 [3]: 15.90 h
accumulation after 12 weeks of twice-daily topical application (miniature swine, topical Galnobax): no apparent accumulation
